Data: patent US20070112068A1, “Nitrile compound and its use in pest control” (priority 2003, published 2007)

Columns and labels:
Assay type in all cases: in vivo
Megaselia spiracularis = test: Experimental Example 8: treated filter paper suspended in glass chamber, Megaselia spiracularis; conditions: 2.5 ml of 2% (w/v) acetone solution on filter paper; 70 cm cube chamber; 2 hours exposure, 24 hours later
Method: (§1) A 2% (w/v) solution of the present compound (31) in acetone was prepared. Onto a filter paper with 10 cm×12.5 cm, 2.5 ml of the solution was added dropwise uniformly and then air-dried. This filter paper was suspended from the center of the ceiling of a glass chamber with 70 cm (width)×70 cm (depth)×70 cm (height) and therein 20 imagoes of Megaselia spiracularis were released. After 2 hours, all test pests were collected, put in a plastic cup together with absorbent cotton impregnated with 5% sugar water, and then left at 25° C. After 24 hours, the number of surviving Megaselia spiracularis was examined and the death rate was calculated.

Blattella germanica = test: Experimental Example 13: direct oil spray in CSMA chamber, Blattella germanica; conditions: 1.5 ml of 0.025% (w/v) oil sprayed directly; after 3 days
Method: 7.5 mg of the present compound (31) was dissolved in 30 mL of a mixture of 90 parts by weight of Isopar M (isoparaffin, the registered trade name of Exxon Chemical) and 10 parts by weight of dichloromethane to prepare a 0.025% (w/v) oil. A plastic container (diameter: 9.5 cm, height: 4 cm, bottom part of 16 mesh wire) containing 10 imagoes (5 males and 5 females) of Blattella germanica was placed on the bottom of a CSMA chamber (width: 46 cm, depth: 46 cm, height: 70 cm).
1.5 ml of the oil was directly sprayed on test cockroaches from the upper side of the CSMA chamber. After 30 seconds from spraying, the container containing cockroaches was removed. All cockroaches were transferred to another clean plastic container (200 mL) and left together with feed and water at 25° C. After 3 days, the number of surviving Blattella germanica was examined and the death rate of the pest was calculated.

[1] = system: Haemaphysalis longicornis; test: Experimental Example 7: treated polypropylene film pouch, Haemaphysalis longicornis; conditions: 0.22 ml of 0.25% (w/v) methanol solution on film; 10 young mites; after 48 hours
Method: A 0.25% (w/v) solution of the present compound (31) in methanol was prepared. Onto one side of a polypropylene film having 5.7 cm (height)×16.5 cm (width), 0.22 ml of the solution was added dropwise uniformly (except for 5 mm width from the edges of the film) and then air-dried. Thereafter, the film was folded in half widthwise in a way that the side containing the present compound became the inner face of the folded film. Then, the two longer sides (5 mm width each) of the folded film were heat-sealed to obtain a pouch. 10 young mites of Haemaphysalis longicornis were put into the polypropylene film pouch. The opening part of the polypropylene film pouch was closed with a clip. After 48 hours, the number of surviving Haemaphysalis longicornis was examined and the death rate of the pest was calculated.

Clogmia albipunctata = test: Experimental Example 9: treated filter paper suspended in glass chamber, Clogmia albipunctata; conditions: 2.5 ml of 2% (w/v) acetone solution on filter paper; 70 cm cube chamber; 2 hours exposure, 24 hours later
Method: as §1, with “of Clogmia albipunctata” for “of Megaselia spiracularis”, “put into” for “put in”, “surviving Clogmia albipunctata” for “surviving Megaselia spiracularis”, “was calculated (2 repetitions).” for “was calculated.”

Culex pipiens pallens = test: Experimental Example 25: electric mosquito mat, Culex pipiens pallens; conditions: electric mosquito mat (Formulation Example 18); 20 minutes exposure, after 24 hours
Method: An electric mosquito mat of the present compound (31) prepared according to Formulation Example 18 is set on a heater for an electric mosquito mat and then placed on the centre of the floor of a chamber having 70 cm (width)×70 cm (depth)×70 cm (height). After the electric mosquito mat is initiated to be heated with the heater, about 20 female imagoes of Culex pipiens pallens are released in the chamber. After 20 minutes, all test pests are collected, placed in a plastic cup together with absorbent cotton impregnated with 5% sugar water, and left at 25° C.

Structure (SMILES): N#CC(C#N)(CCC(F)(F)F)CC(F)(F)C(F)(F)C(F)(F)C(F)F [(31)]
- death rate of the pest (Megaselia spiracularis): 100%
- death rate of the pest (Blattella germanica): 100%
- death rate of the pest [1]: 100%
- death rate of the pest (Clogmia albipunctata): 83%
- pesticidal effect (Culex pipiens pallens): pesticidal effect on Culex pipiens pallens is confirmed
